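All cell lines were grown in 96-well plates and treated with compound for 48 hours. GI50 marks 50% less growth.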 The source made the active and inactive calls. No stated cut-off is given here; in the data, active = GI50 up to about 1.1 µM and inactive = higher.
Assays:
Test in all cases: NCI tumour cell line growth inhibition, 48 h
[1] = tested on: BT-549
[2] = tested on: M14
[3] = tested on: T47D
[4] = tested on: NCI-H522
[5] = tested on: U-251
[6] = tested on: NCI-H23
[7] = tested on: PC-3
[8] = tested on: SK-MEL-5
[9] = tested on: OVCAR-5
[10] = tested on: RXF 393
[11] = tested on: OVCAR-8
[12] = tested on: HCC 2998
[13] = tested on: HOP-62
[14] = tested on: COLO 205
[15] = tested on: UACC-62
[16] = tested on: SN12C
[17] = tested on: IGROV-1
[18] = tested on: MCF7
[19] = tested on: UO-31
[20] = tested on: HCT-116
[21] = tested on: CAKI-1
[22] = tested on: MOLT-4
[23] = tested on: OVCAR-4
[24] = tested on: A498
[25] = tested on: ACHN
[26] = tested on: MDA-MB-435
[27] = tested on: EKVX
[28] = tested on: HT-29
[29] = tested on: CCRF-CEM
[30] = tested on: SK-MEL-2
[31] = tested on: SNB-19
[32] = tested on: HL-60
[33] = tested on: Malme-3M
[34] = tested on: SK-MEL-28
[35] = tested on: KM12
[36] = tested on: DU-145
[37] = tested on: MDA-N
[38] = tested on: OVCAR-3
[39] = tested on: 786-0
[40] = tested on: NCI/ADR-RES
[41] = tested on: SR
[42] = tested on: SNB-75
[43] = tested on: NCI-H460
[44] = tested on: LOX IMVI
[45] = tested on: SF-295
[46] = tested on: TK-10
[47] = tested on: HCT-15
[48] = tested on: NCI-H226
[49] = tested on: HOP-92
[50] = tested on: SF-539
[51] = tested on: SF-268
[52] = tested on: SW-620
[53] = tested on: Hs-578T
[54] = tested on: MDA-MB-231
[55] = tested on: UACC-257
[56] = tested on: SK-OV-3
[57] = tested on: A549
[58] = tested on: K562
[59] = tested on: RPMI-8226

For `O=C1CC(c2ccccc2)NCCCCN2CC(CN1)C(C(O)c1ccccc1)C2=O` (stereo not given), the GI50 [1] was > 100 µM (inactive), the GI50 [2] was > 100 µM (inactive) and the GI50 [3] was > 100 µM (inactive). The GI50 [4] was > 100 µM (inactive), the GI50 [5] was > 100 µM (inactive) and the GI50 [6] was > 100 µM (inactive). The GI50 [7] was > 100 µM (inactive), the GI50 [8] was > 100 µM (inactive) and the GI50 [9] was > 100 µM (inactive). For the same compound, the GI50 [10] was > 100 µM (inactive), the GI50 [11] was > 100 µM (inactive) and the GI50 [12] was > 100 µM (inactive). The GI50 [13] was > 100 µM (inactive), the GI50 [14] was > 100 µM (inactive) and the GI50 [15] was > 100 µM (inactive). For the same compound, the GI50 [16] was > 100 µM (inactive), the GI50 [17] was > 100 µM (inactive) and the GI50 [18] was > 100 µM (inactive). The GI50 [19] was > 100 µM (inactive), the GI50 [20] was > 100 µM (inactive) and the GI50 [21] was > 100 µM (inactive). The GI50 [22] was > 100 µM (inactive), the GI50 [23] was > 100 µM (inactive) and the GI50 [24] was > 100 µM (inactive). The GI50 [25] was > 100 µM (inactive), the GI50 [26] was > 100 µM (inactive) and the GI50 [27] was > 100 µM (inactive). The GI50 [28] was > 100 µM (inactive), the GI50 [29] was > 100 µM (inactive) and the GI50 [30] was > 100 µM (inactive). The GI50 [31] was > 100 µM (inactive), the GI50 [32] was > 100 µM (inactive) and the GI50 [33] was > 100 µM (inactive). For the same compound, the GI50 [34] was > 100 µM (inactive), the GI50 [35] was > 100 µM (inactive) and the GI50 [36] was > 100 µM (inactive). For the same compound, the GI50 [37] was > 100 µM (inactive), the GI50 [38] was > 100 µM (inactive) and the GI50 [39] was > 100 µM (inactive). The GI50 [40] was > 100 µM (inactive), the GI50 [41] was > 100 µM (inactive) and the GI50 [42] was 95.5 µM (inactive). For the same compound, the GI50 [43] was > 100 µM (inactive), the GI50 [44] was > 100 µM (inactive) and the GI50 [45] was > 100 µM (inactive). The GI50 [46] was > 100 µM (inactive), the GI50 [47] was over 100 µM and the GI50 [48] was > 100 µM (inactive). For the same compound, the GI50 [49] was > 100 µM (inactive), the GI50 [50] was > 100 µM (inactive) and the GI50 [51] was > 100 µM (inactive). The GI50 [52] was > 100 µM (inactive), the GI50 [53] was > 100 µM (inactive) and the GI50 [54] was > 100 µM (inactive). The GI50 [55] was > 100 µM (inactive), the GI50 [56] was > 100 µM (inactive) and the GI50 [57] was > 100 µM (inactive).
For `COc1ccc(/[N+]([O-])=C/c2ccc(OC(=S)S)c(OC)c2)cc1`, the GI50 [1] was 26.2 µM (inactive), the GI50 [2] was 46.8 µM (inactive) and the GI50 [3] was 28.6 µM (inactive). The GI50 [4] was 25.8 µM (inactive), the GI50 [5] was 36.2 µM (inactive) and the GI50 [6] was 29.6 µM (inactive). The GI50 [58] was 21.7 µM (inactive), the GI50 [7] was 42.4 µM (inactive) and the GI50 [8] was 24.5 µM (inactive). For the same compound, the GI50 [9] was > 100 µM (inactive), the GI50 [10] was 19.6 µM (inactive) and the GI50 [11] was 38.5 µM (inactive). The GI50 [12] was > 100 µM (inactive), the GI50 [13] was 39.7 µM (inactive) and the GI50 [14] was 44.9 µM (inactive). For the same compound, the GI50 [15] was 99.3 µM (inactive), the GI50 [16] was 37.7 µM (inactive) and the GI50 [17] was 39.3 µM (inactive). For the same compound, the GI50 [18] was 5.58 µM (inactive), the GI50 [19] was 44.6 µM (inactive) and the GI50 [59] was 30.3 µM (inactive). For the same compound, the GI50 [20] was 28.5 µM (inactive), the GI50 [21] was 17 µM (inactive) and the GI50 [22] was 33 µM (inactive). The GI50 [23] was 17.4 µM (inactive), the GI50 [24] was > 100 µM (inactive) and the GI50 [25] was 75 µM (inactive). The GI50 [26] was 9.46 µM (inactive), the GI50 [27] was 31.4 µM (inactive) and the GI50 [28] was 33.3 µM (inactive). The GI50 [30] was 35.5 µM (inactive), the GI50 [31] was 43.6 µM (inactive) and the GI50 [32] was 17.3 µM (inactive). The GI50 [33] was 62.7 µM (inactive), the GI50 [34] was 52.2 µM (inactive) and the GI50 [35] was 8.39 µM (inactive). The GI50 [36] was 41.6 µM (inactive), the GI50 [37] was 21.3 µM (inactive) and the GI50 [38] was 43.9 µM (inactive). The GI50 [39] was 50.6 µM (inactive), the GI50 [40] was 22.7 µM (inactive) and the GI50 [41] was 15.6 µM (inactive). The GI50 [42] was 16.3 µM (inactive), the GI50 [43] was > 100 µM (inactive) and the GI50 [44] was 38.5 µM (inactive). For the same compound, the GI50 [45] was 28.6 µM (inactive), the GI50 [46] was 85.1 µM (inactive) and the GI50 [47] was 22.2 µM. For the same compound, the GI50 [48] was 65.6 µM (inactive), the GI50 [49] was 23.2 µM (inactive) and the GI50 [50] was 45.4 µM (inactive). The GI50 [51] was 42.5 µM (inactive), the GI50 [52] was 30.9 µM (inactive) and the GI50 [53] was 34.4 µM (inactive). The GI50 [54] was > 100 µM (inactive), the GI50 [55] was > 100 µM (inactive) and the GI50 [56] was 47.1 µM (inactive). The GI50 [57] was 40.6 µM (inactive).
